Test system: CT-DNA
Experiment: UV-vis absorption titration with CT-DNA
Format: binding, calf
Protocol: The UV-vis titration technique was employed to conduct DNA binding investigations of the newly synthesized Ti(IV)complexes. The binding interactions between Ti(IV) complexes and CT-DNA 5 mM (5 × 10^−5 M) produced in PBS buffer were assessed in a 5 mM phosphate buffer (PBS) with a pH of 7.4. The ratio of UV absorbance of CT-DNA at each position, 260 and 280 nm, was confirmed. The concentration of each nucleotide was calculated using the molar absorption coefficient (6600 m^−1) of CT-DNA at 260 nm. Additional dilutions were made in 5 mM PBS buffer solution, and stock solutions of metal complexes were prepared in DMSO. DNA binding experiments were performed with a fixed concentration of the complex (20 μM) and increasing concentrations of CT-DNA (0–80 μM) in sample solutions to detect the CT-DNA absorbance peak.[41,42]
UV-vis spectra typically show a shift in wavelength and a change in absorption spectra as a result of the interaction of the Ti(IV) complexes with DNA. […] Then, using eqn (4), the binding characteristics for the aforementioned complexes, including binding constant (Kb) and binding sites, were determined.4 [drawing 4] where εa, εf, and εb represent the apparent extinction coefficient of the complex, the extinction coefficient of the complex in its free form and the extinction coefficient of the complex when completely bound to DNA.

## [O-]C(=NN=Cc1cc(F)ccc1[O-])c1ccncc1.[O-]C(=NN=Cc1cc(F)ccc1[O-])c1ccncc1.[Ti+4] [Ti-4-IF]
  Binding constant with DNA: 297000 M⁻¹

Source: article PMC12264794, “Homoleptic complexes of titanium(IV) fused with O^N^O Schiff base derivatives: design, BSA–DNA interaction, molecular docking, DFT and cytotoxicity” (RSC Advances, 2025)
